Reference: patent US10202371B2, “Oxazolidin-2-one-pyrimidine derivatives and the use thereof as phosphatidylinositol-3-kinase inhibitors” (Novartis AG, priority 2012, dated 2019)

Target: human mTOR (GST-mTOR) (Homo sapiens (Human), UniProt P42345)
Experiment: Binding assay mTor (Lanthascreen kinase binding assay)
Conditions: Tracer-314
Excerpt: Catalytically active human PI3Kα, PI3Kβ, PI3Kδ, and mTOR were cloned, expressed and purtified as described (Maira S M, Stauffer F, Brueggen J, Furet P, Schnell C, Fritsch C, Brachmann S, Chène P, de Pover A, Schoemaker K, Fabbro D, Gabriel D, Simonen M, Murphy L, Finan P, Sellers W, Garcia-Echeverria C (2008), Mol Cancer Ther. 7:1851-63 and Maira S M, Pecchi S, Brueggen J, Huh K, Schnell C, Fritsch C, Nagel T, Wiesmann M, Brachmann S, Dorsch M, Chène P, Schoemaker K, De Pover A, Menezes D, Fabbro D, Sellers W, Garcia-Echeverria C, Voliva CF (2011), Mol. Cancer Ther. accepted).
TR-FRET assays for protein kinases uses a long-lifetime lanthanide Terbium or Europium chelates as the donor species which overcome interference by compound autofluorescence or light scatter from precipitated compounds, by introducing a delay after excitation by a flashlamp excitation source. Results are often expressed as a ratio of the intensities of the acceptor and donor fluorophores. The ratiometric nature of such a value corrects for differences in assay volumes between wells, as well as corrects for quenching effects due to colored compounds.
Binding Assays are based on the binding and displacement of an Alexa Fluor® 647-labeled, ATP-competitive kinase inhibitors to the kinase of interest. Invitrogen's “Kinase Tracers” have been developed to address a wide range of kinase targets and are based on ATP-competitive kinase inhibitors, making them suitable for detection of any compounds that bind to the ATP site or to an allosteric site altering the conformation of the ATP site. Inhibitors that bind the ATP site include both Type I kinase inhibitors, which bind solely to the ATP site, and Type II inhibitors (e.g., Gleevec®/Imatinib, Sorafenib, BIRB-796), which bind to both the ATP site and a hydrophobic site exposed in the DFG-out (non-active) conformation. […] The sole exception was a substrate-competitive compound, and thus not a true allosteric inhibitor.
In contrast to most fluorescence-based kinase activity assays, LanthaScreen® Eu^3+ Kinase Binding Assays can be read continuously, which facilitates evaluation of compounds with slow binding kinetics. Also, unlike most activity assays, binding assays can be performed using either active or non-activated kinase preparations, which enables characterization of compounds that bind preferentially to non-activated kinases, such as Gleevec®/imatinib and some allosteric inhibitors.
In the Lanthascreen™ kinase binding assay, the donor (Eu^3+-anti-GST antibody) is excited at 340 nm and will transfer its energy to the acceptor (Alexa Fluor® 647-labeled ATP-competitive kinase inhibitor=Tracer-314). The emission from the Tracer-314 (Alexa Fluor® 647 inhibitor) can be monitored with a filter centered at 665 nm because it is located between the emission peaks of the donor, which is measured at 615/620 nm. The binding of both, the Tracer-314 and Eu^3+-anti-GST antibody, to the kinase results in a high degree of FRET from the Eu^3+-donor fluorophore to the Alexa-Fluor® 647-acceptor fluorophore on the Tracer-314. Binding of an inhibitor to the kinase competes for binding with the tracer, resulting in a loss of FRET.
50 nL of compound dilutions were dispensed onto white 384-well small volume polystyrene plate as described in section 2.2. Then 5 μL of GST-mTOR and Europium-anti-GST antibody followed by 5 μL of tracer-314 (final assay volume 10 μL) are incubated at RT. The standard reaction buffer for the Lanthascreen™ kinase binding assay contained 50 mM HEPES pH 7.5, 5 mM MgCl2, 1 mM EGTA, 0.01% Pluronic F-127. Plates are read 60 mins later in a Synergy2 reader using an integration time of 0.2 microseconds and a delay of 0.1 microseconds.
To calculate the emission ratio, the signal emitted at 665 nm from the acceptor (Alexa Fluor® 647-labeled Tracer-314) is divided by the signal emitted at 620 nm from the donor (Eu^3+ anti-GST antibody) […]

Structure (SMILES) | IC50
CC[C@H]1[C@H](c2ccc(OC)cc2)OC(=O)N1c1cc(-c2cnc(N)nc2C(F)(F)F)nc(N2CCOCC2)n1 (relative stereo) [Example 2, (4S*,5S*)-3-(2′-amino-2-morpholino-4′-(trifluoromethyl)-[4,5′-bipyrimidin]-6-yl)-4-ethyl-5-(4-methoxyphenyl)oxazolidin-2-one] | 2800 nM
C[C@H]1[C@H](c2nccs2)OC(=O)N1c1cc(-c2cnc(N)nc2C(F)(F)F)nc(N2CCOCC2)n1 [Example 1, (4S,5R)-3-(2′-Amino-2-morpholin-4-yl-4′-trifluoromethyl-[4,5′]bipyrimidinyl-6-yl)-4-methyl-5-thiazol-2-yl-oxazolidin-2-one] | 251 nM
COc1ccc([C@@H]2OC(=O)N(c3cc(-c4cnc(N)nc4C(F)(F)F)nc(N4CCOCC4)n3)[C@H]2CO)cc1 [Example 3, (4S,5S)-3-(2′-Amino-2-morpholino-4′-(trifluoromethyl)-[4,5′-bipyrimidin]-6-yl)-4-(hydroxymethyl)-5-(4-methoxyphenyl)oxazolidin-2-one] | 850 nM
C[C@H]1[C@H](c2ccccc2)OC(=O)N1c1cc(-c2cnc(N)nc2C(F)(F)F)nc(N2CCOCC2)n1 [Example 5] | 2250 nM
CC[C@H]1[C@H](c2nccs2)OC(=O)N1c1cc(-c2cnc(N)nc2C(F)(F)F)nc(N2CCOCC2)n1 [Example 7] | 2700 nM
CCC1C(c2cccnc2)OC(=O)N1c1cc(-c2cnc(N)nc2C(F)(F)F)nc(N2CCOCC2)n1 (centres unmarked) [Example 8] | 960 nM
Nc1ncc(-c2cc(N3C(=O)O[C@@H](c4ccccc4)[C@@H]3CO)nc(N3CCOCC3)n2)c(C(F)(F)F)n1 [Example 10] | 1010 nM
C[C@H]1[C@@H](c2nccs2)OC(=O)N1c1cc(-c2cnc(N)nc2C(F)(F)F)nc(N2CCOCC2)n1 [Example 11] | 870 nM
COCCOc1ccc([C@@H]2OC(=O)N(c3cc(-c4cnc(N)nc4C(F)(F)F)nc(N4CCOCC4)n3)[C@H]2CO)cc1 [Example 12] | 750 nM
Nc1ncc(-c2cc(N3C(=O)O[C@@H](c4ccc(OCCO)cc4)[C@@H]3CO)nc(N3CCOCC3)n2)c(C(F)(F)F)n1 [Example 13] | 230 nM
Nc1ncc(-c2cc(N3C(=O)O[C@@H](c4ccc(OCCCO)cc4)[C@@H]3CO)nc(N3CCOCC3)n2)c(C(F)(F)F)n1 [Example 14] | 490 nM
